Holding throughout (assay): inhibition of tumour cell growth, NCI panel, 48 h
Assay [1] concerns MDA-MB-231 breast.
Assay [2] concerns SK-MEL-28 melanoma.
Assay [3] relates to SF-295 CNS.
The subject of assay [4] is UACC-257 melanoma.
Assay [5] has as its system KM12 colon.
The subject of assay [6] is COLO 205 colon.
Assay [7] concerns UACC-62 melanoma.
For assay [8], the system named is ACHN renal.
The test system of assay [9] is A549 NSCLC.
Assay [10] concerns EKVX NSCLC.
Assay [11] relates to HCT-15 colon.
Assay [12] relates to A498 renal.
Assay [13] deals with SK-MEL-2 melanoma.
Assay [14] has as its system M14 melanoma.
Assay [15] has as its system HCC-2998 colon.
Assay [16] concerns DU-145 prostate.
Assay [17] relates to SF-268 CNS.

SMILES strings stand for the structures.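 Grown in 96-well plates, cells were treated for 48 hours with each compound at five concentrations. Insufficient inhibition: endpoint recorded as highest concentration tested. TGI is the concentration that stops growth completely.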

For the molecule `CC(=O)O[C@@H]1O[Si](C(C)(C)C)(C(C)(C)C)[C@H](C)[C@H]1C`, the TGI in assay [1], in assay [2], in [3], in assay [4], in assay [5] and in [6] was more than 100 µM throughout. The TGI in assay [7], in [8], in assay [9], in assay [10], in assay [11] and in assay [12] was more than 100 µM throughout. Besides, the TGI in assay [13], in assay [14] and in [15] was more than 100 µM in each case.
Regarding `COC(=O)c1cc(C)n(CN(Cc2ccccc2)Cn2nc(C(=O)OC)cc2C)n1`, the TGI in [1], in assay [2], in assay [16], in [17], in [3] and in assay [4] was more than 100 µM each time. Moreover, the TGI in [5] is more than 100 µM; in assay [6], more than 78.1 µM; in assay [7] it was more than 100 µM; in [8], more than 65.6 µM; in assay [9] it was more than 100 µM; in assay [10] it was more than 100 µM. The TGI in assay [11] is more than 58.2 µM; in assay [12], more than 100 µM; in assay [13], more than 100 µM; in assay [14], more than 100 µM.
Take `CCC(=O)NCCc1c2c3c(ccnc3c3ncsc13)-c1ccccc1N2`: the TGI in [1] was more than 68.4 µM; in assay [2], more than 100 µM; in assay [16], more than 100 µM; in assay [17] it was more than 100 µM; in assay [3], more than 100 µM; in assay [4], more than 94.9 µM. The TGI was more than 100 µM in [5]; more than 100 µM in assay [6]; more than 67.1 µM in [7]; more than 38.3 µM in [8]; more than 53.1 µM in assay [9]; more than 100 µM in assay [10]. Moreover, the TGI in assay [11], in [12], in assay [13] and in [14] was more than 100 µM each time.
Regarding `COc1ccccc1NC(=S)Nc1cc(C)ccn1`, the TGI in assay [1] was 60.7 µM; in [2], more than 100 µM; in assay [16] it was more than 100 µM; in assay [17], more than 100 µM; in [3], more than 100 µM; in assay [4], more than 100 µM. Also, the TGI in [5], in [6], in [7], in assay [9], in [10] and in [11] was more than 100 µM throughout. Besides, the TGI in [12], in assay [13] and in [14] was more than 100 µM each time.
Take `O=C(c1ccccc1)c1c(CC(O)c2ccccc2)n(C(=O)c2ccccc2)c2ccccc12` (centres undefined): the TGI in assay [2], in assay [17], in assay [3], in assay [4], in assay [5] and in assay [6] was more than 100 µM in each case. For the same molecule, the TGI in assay [7], in assay [8], in assay [9], in [11], in assay [13] and in assay [14] was more than 100 µM in each case. Further, in assay [15], the TGI was more than 100 µM.
For `Cc1cc(C)n(CN(Cn2nc(C)cc2C)c2ccccc2)n1`, the TGI in assay [1] is more than 100 µM; in assay [2], 34.7 µM; in assay [16], more than 100 µM; in [17], 52.6 µM; in [3] it was more than 100 µM; in assay [4], 61 µM. Further, the TGI is 42.6 µM in [5]; 28.1 µM in assay [6]; 26.5 µM in assay [7]; 51.5 µM in [8]; more than 100 µM in [9]; 72.8 µM in assay [10]. In addition, the TGI is 50.2 µM in assay [11], more than 100 µM in [12], 44.6 µM in assay [13] and 31.1 µM in assay [14].
Turning to `CC(=O)ON(C(C)=O)C1C(COC(c2ccccc2)(c2ccccc2)c2ccccc2)OC2OC3(CCCC3)OC21` (centres undefined), the TGI in [2], in [17], in assay [3], in [4], in assay [5] and in assay [6] was more than 100 µM throughout. The TGI in [7], in assay [8], in [9], in assay [10], in assay [11] and in assay [12] was more than 100 µM in each case. Further, the TGI in [13], in assay [14] and in assay [15] was more than 100 µM throughout.
Regarding `Cn1c(-c2ccc(N=NNc3ccc(-c4n[nH]c(=S)n4C)cc3)cc2)n[nH]c1=S`, the TGI is 43.4 µM in assay [1]; more than 100 µM in assay [2]; 30.6 µM in assay [16]; more than 100 µM in assay [17]; more than 100 µM in [3]; more than 100 µM in assay [4]. Also, the TGI in [6] was more than 100 µM; in assay [8], 3.93 µM; in [9], more than 100 µM; in [10], more than 100 µM; in assay [11], more than 100 µM; in [12] it was more than 100 µM. In addition, the TGI in [13] and in [14] was more than 100 µM in each case.
`COc1ccc(CNC(=O)[C@H](Cc2ccc(O)cn2)NC(C)=O)cc1`: the TGI in assay [2], in assay [16], in [17], in [3], in assay [4] and in assay [5] was more than 100 µM each time. Further, the TGI in assay [6], in assay [7], in assay [8], in assay [9], in assay [10] and in assay [11] was more than 100 µM in each case. The TGI in [12], in assay [13], in [14] and in [15] was more than 100 µM throughout.
In the case of `CC1=NN(C(=O)c2ccc(Cl)cc2)C(=O)/C1=C/c1ccco1`, the TGI in assay [2], in assay [17], in assay [3], in assay [4], in assay [5] and in assay [6] was more than 100 µM throughout. Moreover, the TGI in assay [7], in [8], in assay [9], in assay [10], in assay [11] and in assay [12] was more than 100 µM each time. In addition, the TGI in [13], in assay [14] and in assay [15] was more than 100 µM throughout.
Turning to `O=C(O)CC1CC=C[C@H]2c3cc4c(cc3C(=O)NC12)OCO4` (some centres undefined), the TGI in [2], in [17], in [3], in assay [4], in [5] and in assay [6] was more than 75 µM in each case. Further, the TGI in assay [7], in assay [8], in assay [9], in assay [10], in [11] and in [14] was more than 75 µM each time. Moreover, the TGI in assay [15] is more than 75 µM.
For the molecule `O=C1C2ON3c4ccccc4C(=O)C3(c3ccccc3)C2C(=O)N1c1ccccc1` (centres undefined), the TGI in assay [2], in [17], in assay [3], in assay [4], in [6] and in assay [7] was more than 100 µM throughout. The TGI in [8], in assay [9], in [10], in assay [11], in [12] and in assay [14] was more than 100 µM throughout. Further, the TGI in assay [15] was more than 100 µM.
In the case of `CC(O[Si](c1ccccc1)(c1ccccc1)C(C)(C)C)[C@H](NC(=O)OC(C)(C)C)C(=O)O` (some centres undefined), the TGI in [2] is more than 100 µM; in assay [17] it was more than 100 µM; in [3] it was more than 100 µM; in assay [4], more than 100 µM; in assay [5], more than 100 µM; in assay [6] it was 46.1 µM. Also, the TGI in [8] is more than 100 µM; in assay [9], more than 100 µM; in [10], more than 100 µM; in [11], 79.7 µM; in assay [12] it was more than 100 µM; in assay [14], more than 100 µM. This molecule also returned a TGI in assay [15] of more than 100 µM.
For `O=C(/C=C/c1ccc(O)c(O)c1)NCCc1ccc(-c2ccccc2)cc1`, the TGI in [2], in [16], in [17], in assay [3], in assay [4] and in assay [5] was more than 100 µM in each case. Besides, the TGI in assay [6], in assay [9], in assay [10], in assay [11], in [12] and in assay [13] was more than 100 µM throughout. Besides, the TGI in [14] and in assay [15] was more than 100 µM each time.
For the molecule `CCOC(=O)NC(=S)c1ccc(O)c2ccccc12`, the TGI in assay [2], in assay [16], in assay [17], in [3], in [4] and in assay [5] was more than 100 µM each time. In addition, the TGI in assay [6], in assay [7], in [8], in assay [9], in assay [10] and in assay [11] was more than 100 µM in each case. The TGI in [12], in assay [13], in assay [14] and in assay [15] was more than 100 µM each time.
For `CC(=O)Oc1c2oc3cc(O)c(O)cc3c2c(OC(C)=O)c2oc3cc(O)c(O)cc3c12`, the TGI in [2] was found to be 41.5 µM; in assay [17], 51 µM; in [3], 30.3 µM; in assay [4] it was 38.8 µM; in assay [5] it was 44.4 µM; in assay [6] it was 33.5 µM. Besides, the TGI in assay [7] was 40.2 µM; in assay [8], 74.8 µM; in assay [9] it was more than 100 µM; in assay [10], 40.1 µM; in assay [11], 72.3 µM; in assay [13], 42.1 µM. Besides, the TGI in assay [14] is more than 100 µM; in assay [15] it was 40.7 µM.
In the case of `O=C1CN(c2ccc(Cl)cc2)C(=O)CN1NCNN1CC(=O)N(c2ccc(Cl)cc2)CC1=O`, the TGI in assay [2], in assay [16], in [17], in [3], in assay [4] and in [5] was more than 100 µM in each case. Moreover, the TGI in assay [6], in assay [7], in assay [8], in assay [9], in assay [10] and in assay [11] was more than 100 µM each time. The TGI in [12], in assay [14] and in assay [15] was more than 100 µM each time.
With `COc1ccc2nc3n(c2c1)C(c1c(Cl)cccc1Cl)SC3` (centres undefined), the TGI in assay [2], in assay [16], in assay [3], in [4], in [5] and in assay [6] was more than 100 µM throughout. Also, the TGI in [7], in [8], in assay [9], in assay [10], in assay [11] and in assay [12] was more than 100 µM in each case. Besides, the TGI in assay [13], in assay [14] and in assay [15] was more than 100 µM in each case.
